Key:
[1] = tested on: human neurons; assay: Survival of human neurons versus FGF2 concentration with or without DHEAS (FIG. 1); assay type: cell-based
From the text: (§1) GENERAL METHODS. Brain tissue was ethically obtained by informed consent from patients before surgery under protocols approved by the Springfield Committee for Research on Human Subjects and the UC Irvine IRB. […] Rather than using aspiration to remove all tissue, slices of tissue 1-3 mm thick were obtained from cortical access ports or tissue that was marginal to the lesion. Use of electrocautery was kept to a minimum to reduce oxyradicals and other neuron damage. […] Hibernate A contains D-glucose, pyruvate, balanced salts, amino acids, and vitamins. B27 contains 5 antioxidants and 15 other components. […] After transport on ice to a laminar flow sterile hood in the culture laboratory, meninges and white matter were removed from the tissue with a scalpel and forceps in a 35 mm dish in 2 ml transport medium. […] The cell suspension was enriched for neurons by centrifugation on a density gradient of Optiprep (Invitrogen). […] The diluted Optiprep was further diluted with transport medium (v/v) to make a gradient containing 4 steps of 1 ml in a 15 ml centrifuge tube: bottom (0.35:0.65), 0.25:0.75, 0.2:0.8, top (0.15:0.85). Up to 6 ml of cell suspension was layered over the Optiprep step gradient. […] Cells were plated at a density of 320/mm^2 onto glass coverslips coated with polylysine as previously described. Cells were cultured in Neurobasal™ A medium (Invitrogen) with 2 percent B27, 5 ng/ml FGF2 (basic human recombinant fibroblast growth factor, Invitrogen) and 0.5 mM glutamine in a humidified atmosphere of 9 percent O2, and 5 percent CO2 (Forma, Marietta, Ohio). […] EGF (20 ng/ml; murine, Invitrogen) and NT3 (100 ng/ml; recombinant, Regeneron) were added as indicated from 500× stock solutions in 1 percent BSA/PBS. Half of the medium was replaced with fresh medium every 3-4 days.

[2] = tested on: human cortical brain cells (neurons vs glia); assay: Adult human cortical brain cells cultured in B27/Neurobasal A, immunostained for neurofilament and GFAP; assay type: cell-based; details: for % GFAP (mean ± S.D.) / % Neurofilament (mean ± S.D.): addition to B27/Neurobasal A, after 6 days
From the text: as §1
For immunocytology, cultures were rinsed twice in warm PBS and fixed for 10 minutes in 4 percent paraformaldehyde in PBS. After rinsing twice with PBS, cells for GFAP staining were postfixed for 20 minutes in acetic acid/ethanol (1:9, v/v) before rinsing again with PBS. Non-specific sites were blocked, and cells were permeabilized for 5 minutes in 5 percent normal goat serum, and 0.5 percent Triton X-100. Cells were incubated with primary antibodies for 1 hour at 22° C. in 5 percent goat serum, and 0.05 percent Triton as follows: mouse anti-neurofilament 200 (1:40, Sigma) with rabbit anti-cow GFAP (1:2000, Dako), or mouse anti-MAP2 (1:250, Boeringer-Mannheim) with rabbit anti-tau (1:2000). After rinsing four times with PBS, cells were incubated 1 hour at 22° C. with a rhodamine-conjugate of goat anti-rabbit IgG (heavy+light chain, 1:500, Tago) together with a cy2-conjugate of goat anti-mouse IgG (heavy+light chain, 1:100, Jackson). After rinsing four times in PBS, coverslips were mounted with Aquamount and imaged through a Nikon 60×/1.4 objective using a Spot cooled CCD camera (Diagnostic Instruments).
Human cortical brain tissue was obtained for culture from eleven consecutive surgical cases, including seven tumor cases, three cases of epilepsy, and one case of suprabulbar palsy. Patients ranged in age from 41 to 70 years.
Neuronal Characteristics of Isolated Cells. Cytoskeletal components were used as specific markers to distinguish neurons from glia. Microtubule associated proteins, MAP2 and tau, are generally associated with somatodendritic and axonal regions of neurons, respectively. Neurofilament 200 is a common intermediate filament protein restricted to neurons, and GFAP is restricted to astroglia. All preparations were immunostained for at least one of these markers.

[3] = surgical sample 1, glioma r. temporal, 46 M
[4] = surgical sample 2, tumor r. temporal, 69 M

`C[C@]12CC[C@H](OS(=O)(=O)O)CC1=CC[C@@H]1[C@@H]2CC[C@]2(C)C(=O)CC[C@@H]12` [DHEAS, dehydroepiandrosterone 3-sulphate] was tested. Which “lowering of the FGF2 ED50 for survival” value ([1]; DHEAS at 10 μg/ml) did it give?
Its value is 10 fold.

What about the “survival at intermediate DHEAS concentrations” value ([1]; DHEAS at 1 and 3 μg/ml, data not shown) of the same compound?
Its value is “intermediate survival between 0 and 10 μg/ml”.

What about the “survival with FGF2 at lower concentrations (FIG. 1)” value ([1]; lower FGF2 concentrations) of the same compound?
Its value is “synergistic for survival with FGF2”.

Which “survival of neurofilament positive cells versus FGF2 alone” value ([2]; added in addition to FGF2, sample 4) does the source give for “EGF: trophic factor EGF, murine, Invitrogen (NSYPGCPSSYDGYCLNGGVCMHIESLDSYTCNCVIGYSGDRCQTRDLRWWELR; Epidermal growth factor; UniProt P01132 977-1029, looked up)” here?
The value was “no more efficacious”.

Which results are given for “FGF2: basic human recombinant fibroblast growth factor, Invitrogen”?
% GFAP (mean ± S.D.) [2, 3]: 30 ± 7%; % Neurofilament (mean ± S.D.) [2, 3]: 67±7%; % GFAP (mean ± S.D.) [2, 4]: > 80%; % Neurofilament (mean ± S.D.) [2, 4]: < 10%; % Neurofilament (mean ± S.D.) ([2]; surgical sample 3, glioma l. frontal, 41 M): 84 ± 8%; % Neurofilament (mean ± S.D.) ([2]; surgical sample 4, epilepsy l. superior temp. gyrus, 33 F): 16 ± 5%; % Neurofilament (mean ± S.D.) ([2]; surgical sample 5, meningioma r. temporal, 70 µM): 17 ± 10%
